Source: paper PMC9014859 (Journal of Medicinal Chemistry, 2022)
“Also recorded” adds a separate entry of the source. Values belong to the compound of their own block, whether it stands above or below them.

Columns and labels:
[1] = test system: Rat small mesenteric artery
[2] = test system: CYP1A2, 2B6, 2C8, 2C9, 2C19, 2D6, 3A4 (value spans the isoforms); assay: in vitro; details: human
[3] = molecular target: T1, NPR-C extracellular domains (Homo sapiens, UniProt P17342); assay: Fluorescence polarization; assay type: binding; details: competition against fluorescent P19 probe
T1 sequence (P17342 27-481): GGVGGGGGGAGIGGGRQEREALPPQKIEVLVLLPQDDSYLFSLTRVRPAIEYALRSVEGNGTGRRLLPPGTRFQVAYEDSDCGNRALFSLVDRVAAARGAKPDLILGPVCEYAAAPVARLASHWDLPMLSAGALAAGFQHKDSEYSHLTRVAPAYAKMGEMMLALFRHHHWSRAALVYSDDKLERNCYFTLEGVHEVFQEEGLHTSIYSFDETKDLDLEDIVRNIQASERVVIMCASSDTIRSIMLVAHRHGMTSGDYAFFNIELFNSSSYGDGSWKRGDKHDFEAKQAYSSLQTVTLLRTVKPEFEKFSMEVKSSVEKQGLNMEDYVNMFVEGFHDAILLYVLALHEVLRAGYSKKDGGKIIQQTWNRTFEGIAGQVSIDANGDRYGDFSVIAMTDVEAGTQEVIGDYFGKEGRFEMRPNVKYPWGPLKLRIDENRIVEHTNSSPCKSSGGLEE

[4] = test system: Mouse small mesenteric artery (NPR-C KO)
[5] = molecular target: T2, Human NPR-C in HeLa cells (Homo sapiens, UniProt P17342); assay: Inhibition of forskolin-induced cAMP production in HeLa cells; details: 100 μM compound, forskolin 10 μM
T2 sequence (P17342 27-541): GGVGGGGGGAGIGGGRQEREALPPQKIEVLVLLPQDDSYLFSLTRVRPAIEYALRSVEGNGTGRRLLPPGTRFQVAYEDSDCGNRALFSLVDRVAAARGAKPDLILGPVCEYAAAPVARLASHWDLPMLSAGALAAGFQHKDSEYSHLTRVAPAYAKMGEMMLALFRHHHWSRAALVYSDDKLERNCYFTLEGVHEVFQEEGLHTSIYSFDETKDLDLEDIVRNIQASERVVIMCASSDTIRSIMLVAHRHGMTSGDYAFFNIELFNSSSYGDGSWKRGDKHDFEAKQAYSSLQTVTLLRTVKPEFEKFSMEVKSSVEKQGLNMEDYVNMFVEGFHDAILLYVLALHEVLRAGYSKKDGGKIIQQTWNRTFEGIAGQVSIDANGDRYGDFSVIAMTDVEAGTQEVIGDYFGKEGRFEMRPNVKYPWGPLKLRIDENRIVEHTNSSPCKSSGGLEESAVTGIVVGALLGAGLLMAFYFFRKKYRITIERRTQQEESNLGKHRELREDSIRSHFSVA

in vitro [6] = details: plasma
in vitro [7] = details: PAMPA, pH 7.4, PAMPA Papp (cm/S × 10^–6)
[8] = test system: CYP isoforms 1A2, 2B6, 2C8, 2C9, 2C19, 2D6, 3A4; assay: in vitro; details: human
physchem = details: solubility (mg/mL), PBS, 5% DMSO, room temperature, 3 h
in vitro [9] = details: male, Sprague-Dawley, rat, hepatocytes
[10] = molecular target: T3, Human FL NPR-C (27–541)-10His-Flag (Homo sapiens, UniProt P17342); assay: Surface plasmon resonance; details: SPR, affinity model, 1:1 binding; for Kd: KD (μM)
T3 sequence (P17342 27-541): T2 sequence (P17342 27-541)

[11] = pH 7.4

- reduction in potency (EC50 value) when treated with M372049 ([1]; rat SMA): 10 fold
- reduction in potency (EC50 value) when treated with osteocrin ([1]; rat SMA): 2.5 fold
- EC50 [2]: > 50 µM
- FP EC50 (μM) [3]: Low % binding
SMILES: CC(=O)Nc1ccc(Nc2ncnc(NCCC(=O)OC(C)(C)C)n2)cc1 [Compound 1, tert-Butyl 3-((4-((4-Acetamidophenyl)amino)-1,3,5-triazin-2-yl)amino)propanoate]
- reduction in potency in NPR-C KO tissue ([4]; mouse SMA, KO vs wild-type): 6.4 fold

- Rat small mesenteric artery EC50+NPR-C inhibitor (M372049) ± SEM (μM) ([1]; vasorelaxation, with M372049 (10 μM)): maintained their activity
- fraction unbound (in vitro [6]; Sprague-Dawley, human and rat): < 0.005
- Papp (in vitro [7]): < 1 ×10⁻⁶ cm/s
- Papp (in vitro [7]; pH 7.4, 5 h, room temperature): < 0.023 ×10⁻⁶ cm/s
- EC50 [8]: 4.96 to 37.8 µM
- solubility (physchem): > 70 µg/mL
- Mouse small mesenteric artery NPR-C KO EC50 ± SEM (μM) ([4]; vasorelaxation, NPR-C knockout): maintained their activity
- hepatocyte CLint (in vitro [9]): < 6.4 µL/min/1e6 cells
- half-life (in vitro [9]; hepatocyte (rat) T1/2 (min), 1 μM test compound): > 3.33 h
SMILES: COC(=O)[C@H](CC(C)C)Nc1nc(Cl)nc(N[C@H]2CC[C@H](Nc3nc(Cl)nc(N[C@@H](CC(C)C)C(=O)OC)n3)CC2)n1 [Compound 17, Dimethyl 2,2′-(((((1r,4r)-Cyclohexane-1,4-diyl)bis(azanediyl))bis(6-chloro-1,3,5-triazine-4,2-diyl))bis(azanediyl))bis(4-methylpentanoate)]
- inhibition of cAMP formation [5]: inhibition trend that did not reach statistical significance

SMILES: CC(C)C[C@H](Nc1nc(Cl)nc(Nc2ccc(NC(=O)c3ccccc3)cc2)n1)C(=O)OC(C)(C)C [Compound 22, tert-Butyl (4-((4-Benzamidophenyl)amino)-6-chloro-1,3,5-triazin-2-yl)-L-leucinate]
- KD (μM) [10]: poor binding profile; also recorded: Rmax>>theoretical

- FP EC50 (μM) [3]: Inactive
SMILES: CC(=O)Nc1ccc(Nc2ncnc(N[C@@H](CC(C)C)C(=O)OC(C)(C)C)n2)cc1 [Compound 26, tert-Butyl (4-((4-Acetamidophenyl)amino)-1,3,5-triazin-2-yl)-L-leucinate]
- inhibition of cAMP formation [5]: inhibition trend that did not reach statistical significance

- fraction unbound (in vitro [6]): 0.15
- EC50 [2]: > 50 µM
- solubility (physchem): > 70 µg/mL
SMILES: CC(=O)Nc1ccc(Nc2ncnc(N[C@@H](CC(C)C)C(=O)O)n2)cc1 [Compound 27, (4-((4-Acetamidophenyl)amino)-1,3,5-triazin-2-yl)-L-leucine]

- Kd [10]: 144 ± 7.7 µM
SMILES: CON(C)C(=O)[C@H](CC(C)C)Nc1ncnc(Nc2ccc(NC(C)=O)cc2)n1 [Compound 32, (S)-2-((4-((4-Acetamidophenyl)amino)-1,3,5-triazin-2-yl)amino)-N-methoxy-N,4-dimethylpentanamide]

SMILES: CC(=O)Nc1ccc(Nc2ncnc(N[C@H](CC(C)C)C(=O)OC(C)(C)C)n2)cc1 [Compound 34, tert-Butyl (4-((4-Acetamidophenyl)amino)-1,3,5-triazin-2-yl)-D-leucinate]
- KD (μM) [10]: failing to pass the preliminary binding screen

- PAMPA Papp (cm/S × 10^–6) [11]: < 1
SMILES: CC(=O)Nc1ccc(Nc2ncnc(NCC(=O)OC(C)(C)C)n2)cc1 [Compound 36, tert-Butyl (4-((4-Acetamidophenyl)amino)-1,3,5-triazin-2-yl)glycinate]

SMILES: CC(=O)Nc1ccc(Nc2ncnc(NC(C)(C)C(=O)OC(C)(C)C)n2)cc1 [Compound 38, tert-Butyl 2-((4-((4-Acetamidophenyl)amino)-1,3,5-triazin-2-yl)amino)-2-methylpropanoate]
- KD (μM) [10]: did not meet the minimum binding threshold

SMILES: CC(=O)Nc1ccc(Nc2ncnc(N[C@@H](C)C(=O)OC(C)(C)C)n2)cc1 [Compound 39, tert-Butyl (4-((4-Acetamidophenyl)amino)-1,3,5-triazin-2-yl)-L-alaninate]
- KD (μM) [10]: did not meet the minimum binding threshold

SMILES: CC(=O)Nc1ccc(Nc2ncnc(N[C@@H](Cc3ccc(O)cc3)C(=O)OC(C)(C)C)n2)cc1 [Compound 42, tert-Butyl (4-((4-Acetamidophenyl)amino)-1,3,5-triazin-2-yl)-L-tyrosinate]
- KD (μM) [10]: did not meet the minimum binding threshold

- Kd [10]: 29.6 ± 4.5 µM
- FP EC50 (μM) [3]: Inactive
SMILES: CC(=O)Nc1ccc(Nc2ncnc(N[C@H](CC(=O)OC(C)(C)C)Cc3ccccc3)n2)cc1 [Compound 44, tert-Butyl (S)-3-((4-((4-Acetamidophenyl)amino)-1,3,5-triazin-2-yl)amino)-4-phenylbutanoate]
